pIC50: −log10 of the molar value. The source made the active and inactive calls. The calls are words filed in the database; no cut-off is given here. *1 amine or outer side, *2 acyl side, *3 side chain or, on linkers, in order; H or OH if unused. Where a SMILES comes first, the peptide text is derived from it. [ ]: non-standard residue; d: D form. The star is where a group is joined. Hydrocinnamoyl(4-OSO3H) = O=C(CCc1ccc(OS(=O)(=O)O)cc1)*; X2 = O=C([C@@H]1CC(OS(=O)(=O)O)CN1[*:1])[*:2]; X5 = CCC[C@H]1CCN([*:1])[C@@H]1C(=O)[*:2]; X4 = O=C(c1ccc2cc(OS(=O)(=O)O)ccc2c1)*; X1 = CCCC1CCN([*:1])[C@@H]1C(=O)[*:2]; X6 = O=C(/C=C/c1ccc(OS(=O)(=O)O)cc1)*; X3 = O=C(/C(=C/c1ccccc1)N[*:1])[*:2]; NMeF = CN[C@@H](Cc1ccccc1)C(=O)O; NMeD = CN[C@@H](CC(=O)O)C(=O)O; NMeL = CN[C@@H](CC(C)C)C(=O)O; Nle = CCCC[C@H](N)C(=O)O; Ava = NCCCCC(=O)O
How the values were obtained:
[1] = species on record: Cavia porcellus; test: (§1) Compound (10e-4 M) was evaluated in vitro for maximal stimulatory activity for PI hydrolysis relative to CCK-8 in guinea pig tissue; assay type: functional
[2] = system: Rattus norvegicus; test: Compound was evaluated for % suppression (at 30 nmol/kg) of food intake in rat (360-420 min); assay type: functional
[3] = as §1; assay type: functional
[4] = system: Cholecystokinin receptor type A (Cavia porcellus); test: Ratio for CCK-A receptor of guinea pig pancreas (IC50(nM)) to CCK-B receptor of guinea pig cortex (IC50(nM))
[5] = biological target: T1, Cholecystokinin receptor type A (Cavia porcellus, UniProt Q63931); test: Evaluated in vitro for its binding affinity towards cholecystokinin type A receptor of guinea pig pancreas
T1 sequence (Q63931 whole entry): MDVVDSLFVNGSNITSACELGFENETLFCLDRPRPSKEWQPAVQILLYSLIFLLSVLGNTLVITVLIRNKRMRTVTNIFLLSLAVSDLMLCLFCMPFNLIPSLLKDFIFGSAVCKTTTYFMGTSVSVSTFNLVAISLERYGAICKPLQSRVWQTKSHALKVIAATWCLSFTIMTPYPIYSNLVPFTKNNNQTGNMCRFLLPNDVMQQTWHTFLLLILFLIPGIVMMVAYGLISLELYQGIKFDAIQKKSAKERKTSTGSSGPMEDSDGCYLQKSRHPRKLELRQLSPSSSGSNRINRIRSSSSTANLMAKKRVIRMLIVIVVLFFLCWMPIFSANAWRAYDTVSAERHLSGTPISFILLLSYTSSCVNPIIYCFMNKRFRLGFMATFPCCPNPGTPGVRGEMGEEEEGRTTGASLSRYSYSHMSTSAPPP

[6] = species on record: Cavia porcellus; test: In vitro maximal stimulatory activity for amylase release relative to CCK-8 in guinea pig tissue at 20 nM; assay type: functional
[7] = species on record: Cavia porcellus; test: In vitro maximal stimulatory activity for amylase release relative to CCK-8 in guinea pig tissue at 10 uM; assay type: functional
[8] = system: Cholecystokinin receptor type A (Cavia porcellus); test: Evaluated in vitro for maximal stimulatory activity for PI hydrolysis relative to CCK-8 in guinea pig tissue
[9] = biological target: Cholecystokinin receptor type A (Cavia porcellus); test: Evaluated in vitro for maximal stimulatory activity for amylase release relative to CCK-8 in guinea pig tissue
[10] = biological target: Cholecystokinin receptor (Rattus norvegicus) (UniProt P30551+P30553); test: Evaluated for effective dose required for suppression of food intake in rat (0-60 min); assay type: functional
[11] = system: Rattus norvegicus; test: Compound was evaluated for % suppression (at 30 nmol/kg) of food intake in rat (360-420 min); not significant; assay type: functional, organism-based
[12] = species on record: Cavia porcellus; test: In vitro maximal stimulatory activity for amylase release relative to CCK-8 in guinea pig tissue at 3 uM; assay type: functional
[13] = species on record: Cavia porcellus; test: In vitro maximal stimulatory activity for amylase release relative to CCK-8 in guinea pig tissue at 5 nM; assay type: functional
[14] = biological target: T2, Cholecystokinin receptor type A (Cavia porcellus) (UniProt Q63931); test: Ratio of binding affinities for CCK-A receptor of guinea pig pancreas (IC50(nM)) to CCK-B receptor of guinea pig cortex (IC50(nM)); assay type: tissue-based
T2 sequence (whole entry): T1 sequence (Q63931 whole entry)

| Ratio [4] | pIC50 [5] | Max response [8] | EC50 [9] | Compound | also measured |
| --- | --- | --- | --- | --- | --- |
| 0.62 |  |  |  | CCCC[C@H](NC(=O)CCc1ccc(OS(=O)(=O)O)cc1)C(=O)NCC(=O)N[C@@H](Cc1c[nH]c2ccccc12)C(=O)N[C@@H](CCCC)C(=O)N[C@@H](CC(=O)O)C(=O)N/C(=C\c1ccccc1)C(N)=O ({Hydrocinnamoyl(4-OSO3H)}-[Nle]GW[Nle]D[X3]-NH2) | Max response [3]: 69% |
|  | 7.64 |  |  | CCCC[C@H](NC(=O)/C=C/c1ccc(OS(=O)(=O)O)cc1)C(=O)NCC(=O)N[C@@H](Cc1c[nH]c2ccccc12)C(=O)N[C@@H](CCCC)C(=O)N[C@@H](CC(=O)O)C(=O)N[C@@H](Cc1ccccc1)C(N)=O (X6-[Nle]GW[Nle]DF-NH2) | Stimulation [6]: 105% |
| 0.04 | 6.05 | 16% |  | CCCC[C@H](NC(=O)c1ccc2cc(OS(=O)(=O)O)ccc2c1)C(=O)NCC(=O)N[C@@H](Cc1c[nH]c2ccccc12)C(=O)N[C@@H](CCCC)C(=O)N[C@@H](CC(=O)O)C(=O)N[C@@H](Cc1ccccc1)C(N)=O (X4-[Nle]GW[Nle]DF-NH2) | Stimulation [7]: 44% |
| 1.1 | 9.17 | 120% | 0.64 nM | CCCC[C@H](NC(=O)[C@H](Cc1c[nH]c2ccccc12)NC(=O)CNC(=O)[C@H](CC(C)C)NC(=O)CCc1ccc(OS(=O)(=O)O)cc1)C(=O)N[C@@H](CC(=O)O)C(=O)N[C@@H](Cc1ccccc1)C(N)=O ({Hydrocinnamoyl(4-OSO3H)}-LGW[Nle]DF-NH2) |  |
| 9 | 6.89 | 86% | 71 nM | CCCC[C@H](NC(=O)[C@H](Cc1c[nH]c2ccccc12)NC(=O)CN1CC[C@H](NC(=O)CCc2ccc(OS(=O)(=O)O)cc2)C1=O)C(=O)N[C@@H](CC(=O)O)C(=O)N[C@@H](Cc1ccccc1)C(N)=O |  |
| 0.1 |  |  |  | CCCC[C@H](NC(=O)CCc1ccc(OS(=O)(=O)O)cc1)C(=O)NCC(=O)N[C@@H](Cc1c[nH]c2ccccc12)C(=O)N[C@@H](CCCC)C(=O)N[C@@H](CC(=O)O)C(=O)N(C)[C@@H](Cc1ccccc1)C(N)=O ({Hydrocinnamoyl(4-OSO3H)}-[Nle]GW[Nle]D[NMeF]-NH2) | Max response [1]: 94%; ED50 [10]: 0.00245 µmol/kg; Supression [2]: 30% |
| 625 | 6.85 | 80% | 15 nM | CCCC[C@H](NC(=O)CCc1ccc(OS(=O)(=O)O)cc1)C(=O)NCC(=O)N[C@@H](Cc1c[nH]c2ccccc12)C(=O)N(C)[C@@H](CC(C)C)C(=O)N[C@@H](CC(=O)O)C(=O)N[C@@H](Cc1ccccc1)C(N)=O ({Hydrocinnamoyl(4-OSO3H)}-[Nle]GW[NMeL]DF-NH2) |  |
| 18.5 | 6.82 | 52% |  | CCCC[C@H](NC(=O)[C@H](Cc1c[nH]c2ccccc12)NC(=O)CNC(=O)[C@@H](CCCC)NC(=O)CCc1ccc(OS(=O)(=O)O)cc1)C(=O)N[C@@H](CC(=O)O)C(=O)N[C@@H](Cc1ccccc1)C(N)=O |  |
|  | 9.11 | 100% | 0.99 nM | CCCC[C@H](NC(=O)CCc1ccc(OS(=O)(=O)O)cc1)C(=O)NCC(=O)N[C@@H](Cc1c[nH]c2ccccc12)C(=O)N[C@@H](CCCC)C(=O)N[C@@H](CC(=O)O)C(=O)N[C@@H](Cc1ccccc1)C(N)=O | Ratio [14]: 1.53; ED50 [10]: 0.00398 µmol/kg; Supression [11]: inactive |

The remaining lines, values behind:

| Compound | Ratio [4] | pIC50 [5] | Max response [8] | EC50 [9] | also measured |
| --- | --- | --- | --- | --- | --- |
| CCCC[C@H](NC(=O)CCc1ccc(OS(=O)(=O)O)cc1)C(=O)NCC(=O)N[C@@H](Cc1c[nH]c2ccccc12)C(=O)N[C@@H](CCCC)C(=O)N(C)[C@@H](CC(=O)O)C(=O)N[C@@H](Cc1ccccc1)C(N)=O ({Hydrocinnamoyl(4-OSO3H)}-[Nle]GW[Nle][NMeD]F-NH2) |  |  |  |  | Max response [1]: 100%; Supression [2]: 29% |
| CCCC[C@H](NC(=O)CCc1ccc(OS(=O)(=O)O)cc1)C(=O)NCC(=O)N[C@@H](Cc1c[nH]c2ccccc12)C(=O)N1CCC(CCC)[C@H]1C(=O)N[C@@H](CC(=O)O)C(=O)N(C)[C@@H](Cc1ccccc1)C(N)=O (stereo partly specified) ({Hydrocinnamoyl(4-OSO3H)}-[Nle]GW[X1]D[NMeF]-NH2) | 14.3 |  |  |  | Max response [1]: 83%; ED50 [10]: 0.00877 µmol/kg; Supression [11]: inactive |
| CCCC[C@H](NC(=O)CCc1ccc(OS(=O)(=O)O)cc1)C(=O)NCC(=O)N[C@@H](Cc1c[nH]c2ccccc12)C(=O)N1CCC[C@H]1C(=O)N[C@@H](CC(=O)O)C(=O)N(C)[C@@H](Cc1ccccc1)C(N)=O ({Hydrocinnamoyl(4-OSO3H)}-[Nle]GWPD[NMeF]-NH2) |  | 7.09 |  |  | Stimulation [12]: 98% |
| CCC[C@H]1CCN(C(=O)[C@H](Cc2c[nH]c3ccccc23)NC(=O)CNC(=O)[C@@H]2CCCN2C(=O)CCc2ccc(OS(=O)(=O)O)cc2)[C@@H]1C(=O)N[C@@H](CC(=O)O)C(=O)N(C)[C@@H](Cc1ccccc1)C(N)=O ({Hydrocinnamoyl(4-OSO3H)}-PGW[X5]D[NMeF]-NH2) [listing 1 of 2 here] |  | 8.14 |  |  |  |
| CCC[C@H]1CCN(C(=O)[C@H](Cc2c[nH]c3ccccc23)NC(=O)CNC(=O)[C@@H]2CCCN2C(=O)CCc2ccc(OS(=O)(=O)O)cc2)[C@@H]1C(=O)N[C@@H](CC(=O)O)C(=O)N(C)[C@@H](Cc1ccccc1)C(N)=O ({Hydrocinnamoyl(4-OSO3H)}-PGW[X5]D[NMeF]-NH2) [listing 2 of 2 here] |  |  |  |  | Stimulation [13]: 83% |
| CCCC[C@H](NC(=O)CCc1ccc(OS(=O)(=O)O)cc1)C(=O)NCC(=O)N[C@@H](Cc1c[nH]c2ccccc12)C(=O)N[C@@H](CCCC)C(=O)N1CC(OS(=O)(=O)O)C[C@H]1C(=O)N[C@@H](Cc1ccccc1)C(N)=O (stereo partly specified) ({Hydrocinnamoyl(4-OSO3H)}-[Nle]GW[Nle][X2]F-NH2) | 0.03 |  |  |  | Max response [1]: 82%; ED50 [10]: > 1 µmol/kg; Supression [11]: inactive |
| CC(C)C[C@H](NC(=O)[C@H](Cc1c[nH]c2ccccc12)NC(=O)CCCCNC(=O)CCc1ccc(OS(=O)(=O)O)cc1)C(=O)N[C@@H](CC(=O)O)C(=O)N[C@@H](Cc1ccccc1)C(N)=O ({Hydrocinnamoyl(4-OSO3H)-Ava}-WLDF-NH2) | 143 | 6.82 | 64% | 140 nM |  |
